From patent publication US10227332B2, “T-type calcium channel modulator and uses thereof” (UTI Limited Partnership, priority 2014, dated 2019)

How the values were obtained:
[1] = tested on: wild-type mice, formalin-induced pain; assay: Formalin test (acute nociceptive and inflammatory phases); type: in vivo, mouse; settings: for inhibition of pain response time, first phase: formalin first phase; for inhibition of pain response time, second phase: formalin second phase
Excerpt: (§1) During experiments, all efforts were made to minimize animal suffering according to the policies and recommendations of the International Association for the Study of Pain and all protocols used were approved by the Institutional Animal Care and Use Committee. For all experiments, either adult male C57BL/6J (wild-type) or CACNA1H knockout (Cav3.2 null) mice (20-25 g) purchased from Jackson Laboratories were used. There were a maximum of five mice per cage (30×20×15 cm) and access to food and water was unlimited. Temperature was kept at 23±1° C. on a 12 h light/dark cycle (lights on at 7:00 a.m.). Intraperitoneal (i.p.) injections of drugs were a constant volume of 10 ml/kg body weight. Intrathecal (i.t.) injections used volumes of 10 μl and were performed using the method described previously and carried out routinely in our laboratory. All drugs were dissolved in 1% or less DMSO, whereas control animals received PBS+1% DMSO. For each test, a different group of mice were used and only one experiment per mouse was performed.
Before experiments were performed, mice were left to acclimatize for at least 60 minutes. Animals were then injected intraplantarily (i.pl.) in the ventral surface of the right hindpaw with 20 μl of a formalin solution (1.25%) made up in PBS. Following i.pl. injections of formalin, individual animals were placed immediately into observation chambers and monitored from 0-5 min (acute nociceptive phase) and 15-30 min (inflammatory phase).

[2] = tested on: wild type mice; assay: Open-field test (locomotor activity); type: in vivo, mouse; settings: 30 mg/kg, i.p.
Excerpt: as §1
Briefly, the apparatus consisted of a wooden box measuring 40×60×50 cm with a glass front wall. The floor was divided into 12 equal squares and the entire apparatus was placed in a sound free room. Animals were placed in the rear left square and left to explore freely and the number of squares crossed with all paws (crossing) in a 6 minute timeframe was counted. […]

[3] = tested on: mice with partial sciatic nerve injury; assay: Partial sciatic nerve injury (PNI)-induced neuropathic pain, mechanical hyperalgesia; type: in vivo, mouse; settings: 30 mg/kg, i.p.; after treatment
Excerpt: as §1
Before surgery, mice were anaesthetised with isoflurane (5% induction, 2.5% maintenance). […] Mechanical hyperalgesia was then evaluated in a time-dependant manner.
Mechanical hyperalgesia responses were recorded immediately before the surgeries (baselines), 14 days after the surgeries (0) and at various time points (0.5, 1, 2, 3 h) after treatment. […]

[4] = biological target: rCB1 (Rattus norvegicus (Rat), UniProt P20272); assay: Radioligand competitive binding assay, CB1 receptor (NIMH PDSP); settings: means of three experiments run in triplicate
Excerpt: (§2) The compounds was screened using whole-cell voltage clamp techniques for their ability to mediate tonic block of transiently expressed hCav3.2 channels (FIG. 1). Next, radioligand binding assays were used to assess the affinities of these compounds for both CB1 and CB2 receptors (Table 1).
(§3) CB1 and CB2 radioligand binding data were obtained using National Institute of Mental Health (NIMH) Psychoactive Drug Screening Program (PDSP) resources as described earlier.

[5] = biological target: hCB2 (Homo sapiens (Human), UniProt P34972); assay: Radioligand competitive binding assay, CB2 receptor (NIMH PDSP); settings: means of three experiments run in triplicate
Excerpt: as §2, §3

[6] = 1-10 μg/i.t., 20 minutes before
[7] = 10-100 mg/kg, i.p., 30 minutes prior

| Compound | inhibition of pain response time, first phase [1, 6] [%] | inhibition of pain response time, second phase [1, 6] [%] | inhibition of pain response time, first phase [1, 7] [%] | inhibition of pain response time, second phase [1, 7] [%] | locomotor activity in open-field test [2] | locomotor activity in open-field test ([2]; listed as compound 9) | duration of attenuation of mechanical hyperalgesia [3] [h] | rCB1 Ki [4] | hCB2 Ki [5] |
| --- | --- | --- | --- | --- | --- | --- | --- | --- | --- |
| CCCCCn1c2ccccc2c2cc(C(=O)NCC3CCN(CC(=O)NC(C)(C)C)CC3)ccc21 [Compound 9, N-((1-(2-(tert-butylamino)-2-oxoethyl)piperidin-4-yl)methyl)-9-pentyl-9H-carbazole-3-carboxamide] | 61±8 | 76±10 | 47±2 | 66±48 | no significant motor deficits | did not significantly affect locomotor activity | > 3 | – | – |
| CCCCCn1c2ccccc2c2cc(C(=O)NCC3CCNCC3)ccc21 [Compound 7, 9-Pentyl-N-(piperidin-4-ylmethyl)-9H-carbazole-3-carboxamide] | – | – | – | – | – | – | – | n.b. | n.b. |
